{
  "source": "patent US20210214731A1",
  "about": "“METHODS FOR TREATING CANCER” (President and Fellows of Harvard College, priority 2019, published 2021)",
  "key": {"MLL-AF9 AML [1]": {"system": "MLL-AF9 AML", "experiment": "In vitro growth of MLL-AF9 AML", "format": "cell-based, mouse", "conditions": "for effect of inhibitor on in vitro growth of MLL-AF9 with MCT4-KO: combined with MCT4-KO versus control gRNA (FIG. 6D)", "method": "Retroviral transduction model of MLL-AF9 or HoxA9-Meis1 AML were generated by infecting normal mouse GMP (Lin^−Kit^+Sca-1^−CD34^+CD16/32^+) (FASC antibodies summarized in Supplemental Table 4) by MSCV constructs. Infected cells were injected into normal C57BL/6J. Leukemic BM was harvested and expanded ex vivo in RPMI-1640 media supplemented with 10% FBS, 1% P/S, recombinant IL-3 (10 ng/ml) and SCF (100 ng/ml)."}, "[2]": {"system": "MCT4 expression in MLL-AF9 AML", "experiment": "MCT4 mRNA (Q-PCR) and protein (Western blot) expression in MLL-AF9 AML upon inhibitor treatment", "format": "cell-based, mouse", "conditions": "MLL-AF9 AML in vitro (FIG. 9G)", "method": "Cells were lyzed in 1×RIPA lysis buffer (Cell Signaling) with protease and phosphatase inhibitors. Cell lysate was centrifuged at 13000 rpm for 10 mins. Supernatant was collected and denatured in SDS-loading buffer with boiling for 10 mins. Cell lysates were separated, transferred and blotted with primary and horseradish peroxidase (HRP)-conjugated secondary antibodies (Supplemental Table 4). Hybridization signals were visualized with Amersham ECL Western blot detection reagents (GE Healthcare Amersham) or Luminata Forte Western HRP substrate (EMD Millipore) and captured by Hyperfilm™ ECL (GE Healthcare Amersham). Densitometric analysis of the bands was performed by ImageJ 1.8.0v.\n(§1) Cell was washed twice with PBS and subjected to RNA purification using RNeasy Plus Mini Kit (Qiagen) according to the manufacturers' protocol. Extracted total RNA was then subjected to reverse transcription using SuperScript IV VILO Master Mix (Thermo Fisher Scientific) according to the manufacturers' protocol. Synthesized cDNA was then used for the Q-PCR using gene-specific primers (Supplemental Table 3) and SYBR™ Green PCR Master Mix. The reaction was run and analyzed by StepOnePlus Real-Time PCR System."}, "MLL-AF9 AML [3]": {"system": "MLL-AF9 AML", "experiment": "Glycolysis and Mito stress analysis (Seahorse ECAR/OCR)", "format": "cell-based, mouse", "conditions": "MLL-AF9 AML in vitro, LDHA inhibition (FIG. 6A)", "method": "Glycolysis stress and Mito stress of normal Lin^− BM cells and AML were examined by Seahorse XF analyzer (Agilent) according to the manufacturers' protocol. In brief, the suspension cells were seeded onto a Cell-Tak (Corning) coated Seahorse XF Microplate in Seahorse XF Base Medium with appropriate supplement (Glycolysis Stress test: 1 mM glutamine; Mito stress test: 1 mM pyruvate, 2 mM glutamine and 10 mM glucose) and centrifuged at 200×g for 5 mins Different compounds were injected for the ECAR and OCR profiling (Glycolysis Stress test: 10 mM glucose, 1 μM Oligomycin and 50 mM 2DG; Mito Stress test: 1 μM Oligomycin, 0.5 μM FCCP and 0.5 μM Antimycin A). The data was eventually analyzed by Seahorse Wave Desktop 2.6 (Agilent)."}, "[4]": {"system": "MCT4 promoter in MLL-AF9 AML", "experiment": "ChIP-PCR of enrichment on MCT4 promoter in MLL-AF9 AML", "format": "cell-based, mouse", "method": "ChIP assays were performed in hematopoietic cells as previously described (Kim et al., 2008) using Pierce™ Protein G Agarose (Thermo Fisher Scientific). In brief, the cell suspension was fixed with 1% formaldehyde for 7 mins then neutralized by glycine. The fixed cell was washed with cold PBS. The cell pellet was then sonicated in SDS ChIP buffer. The supernatant was collected and pre-cleared with protein G agarose. After pre-clearing, a ChIP reaction using different antibodies (1:100, summarized in Supplemental Table 4) was added to the lysate and incubated at 4° C. overnight Immunoprecipitated complexes were successively washed with buffers and then eluted using SDS elution buffer at 65° C. overnight to reverse crosslink protein-DNA complex. The samples were treated with RNase A and Proteinase K, then extracted by phenol-chloroform isoamyl alcohol and precipitated. Finally, the pellet was resuspended in 20 μl TE buffer.\nThe DNA was then subjected to Q-PCR analysis using specific primers (Supplemental Table 3) and SYBR™ Green PCR Master Mix (Thermo Fisher Scientific). Input genomic DNA was used for the reference sample. The reaction was run and analyzed by StepOnePlus Real-Time PCR System (Thermo Fisher Scientific). Mouse or human Gfi1b was included as a negative control."}, "MCT4 expression in THP-1": {"system": "MCT4 expression in THP-1", "experiment": "Q-PCR of MCT4 mRNA expression in THP-1", "format": "cell-based, human", "conditions": "THP-1 (FIG. 10G)", "excerpt": "(§2) Human AML cell lines (K562, KG1, ML2, Kasumi-1, MOLM-13, MOLM-14, MV4-11, THP-1, MONO-MACE, HL-60, NB4, U937 and NOMO-1) were purchased from the American Type Culture Collection (ATCC) and cultured in RPMI-1640 media supplemented with 10% FBS and 1% penicillin/streptomycin (P/S).\nas §1"}, "[5]": {"system": "MCT4 expression in NOMO-1", "experiment": "Q-PCR of MCT4 mRNA expression in NOMO-1", "format": "cell-based, human", "conditions": "NOMO-1 (FIG. 10G)", "excerpt": "as §2, §1"}, "THP-1": {"system": "THP-1", "experiment": "In vitro growth of THP-1", "format": "cell-based, human", "conditions": "THP-1 (FIG. 10H)", "excerpt": "as §2"}, "NOMO-1": {"system": "NOMO-1", "experiment": "In vitro growth of NOMO-1", "format": "cell-based, human", "conditions": "NOMO-1 (FIG. 10H)", "excerpt": "as §2"}},
  "data": [
    {"molecule": "O=CC[C@@H](O)[C@H](O)[C@H](O)CO", "note": "[2DG, 2-deoxyglucose]", "values": [
      {"measurement": "effect of inhibitor on in vitro growth of MLL-AF9 with MCT4-KO", "setting": "MLL-AF9 AML [1]", "result": "increased the effect"}
    ]},
    {"molecule": "NC(=O)c1ccc(N)nc1", "note": "[6AN, 6-aminonicotinamide]", "values": [
      {"measurement": "effect of inhibitor on in vitro growth of MLL-AF9 with MCT4-KO", "setting": "MLL-AF9 AML [1]", "result": "increased the effect"}
    ]},
    {"molecule": "CC(C)N(C[C@H]1O[C@@H](n2cnc3c(N)ncnc32)[C@H](O)[C@@H]1O)[C@H]1C[C@@H](CCc2nc3cc(C(C)(C)C)ccc3[nH]2)C1", "note": "[EPZ-5676]", "values": [
      {"measurement": "MCT4 expression", "setting": "[2]", "result": "not seen"}
    ]},
    {"molecule": "CCCc1c(O)c(O)c(C(=O)O)c2cc(Cc3ccccc3)c(C)cc12", "note": "[FX11]", "values": [
      {"measurement": "extracellular acidification rate (ECAR)", "setting": "MLL-AF9 AML [3]", "result": "decreased"},
      {"measurement": "oxygen consumption rate (OCR)", "setting": "MLL-AF9 AML [3]", "result": "increased"}
    ]},
    {"molecule": "Cc1sc2c(c1C)C(c1ccc(Cl)cc1)=N[C@@H](CC(=O)OC(C)(C)C)c1nnc(C)n1-2", "note": "[JQ-1]", "values": [
      {"measurement": "growth of MLL-AF9 AML", "setting": "MLL-AF9 AML [1]; JQ-1 treatment (FIG. 9H)", "result": "reduced the growth of MLL-AF9 AML in dose dependent manner"},
      {"measurement": "MCT4 expression", "setting": "[2]", "result": "suppressed"},
      {"measurement": "BRD4 enrichment on the MCT4 promoter", "setting": "[4]; mouse MLL-AF9 AML (FIG. 9I)", "result": "reduced"},
      {"measurement": "H3K27ac enrichment on the MCT4 promoter", "setting": "[4]; mouse MLL-AF9 AML (FIG. 9J)", "result": "reduced"},
      {"measurement": "expression of MCT4", "setting": "MCT4 expression in THP-1", "result": "suppressed"},
      {"measurement": "expression of MCT4", "setting": "[5]", "result": "suppressed"},
      {"measurement": "growth", "setting": "THP-1", "result": "suppressed"},
      {"measurement": "growth", "setting": "NOMO-1", "result": "suppressed"}
    ]}
  ]
}
